# Assay results from US8722123B2, “Antimicrobial composition and use as food treatment” (priority 2008, dated 2014).
# “And” between values parts separate entries of the source, which are not always exact repeats. Identical values can stand only once. Like-named read-outs stand apart in the source and are kept apart here.
# Columns and labels:
# S. enteritidis = format: cell-based, Salmonella enteritidis
# [1] = tested on: spores of Bacillus anthracis Sterne; format: cell-based, Bacillus anthracis Sterne (34F2)
# L. monocytogenes = format: cell-based, Listeria monocytogenes
# S. typhimurium DT 104 = format: cell-based, Salmonella typhimurium DT104
# [2] = tested on: Salmonella on whole chicken with feathers; assay: Salmonella counts on whole chicken with feathers; format: cell-based; settings: whole chickens with feathers soaked in 72 L at 21° C. for 5 min, chickens 1-5
Compound,S. enteritidis counts at 0 min (S. enteritidis) [log CFU/ml],S. enteritidis counts at 2 min (S. enteritidis) [log CFU/ml],S. enteritidis counts at 5 min (S. enteritidis) [log CFU/ml],S. enteritidis counts at 10 min (S. enteritidis) [log CFU/ml],S. enteritidis counts at 20 min (S. enteritidis) [log CFU/ml],S. enteritidis counts at 30 min (S. enteritidis) [log CFU/ml],L. monocytogenes counts at 0 min (L. monocytogenes) [log CFU/ml],L. monocytogenes counts at 2 min (L. monocytogenes) [log CFU/ml],L. monocytogenes counts at 5 min (L. monocytogenes) [log CFU/ml],L. monocytogenes counts at 10 min (L. monocytogenes) [log CFU/ml],L. monocytogenes counts at 20 min (L. monocytogenes) [log CFU/ml],L. monocytogenes counts at 30 min (L. monocytogenes) [log CFU/ml],other results
"CC(=O)O [0.5% acetic acid (pH 3.1), acetic acid]",7.1,7.0,6.8,6.7,6.6,6.5,–,–,–,–,–,–,–
"CC(=O)CCC(=O)O [3.0% levulinic acid (pH 2.7), levulinic acid]",6.6,6.8,6.5,6.2,5.1,3.8,–,–,–,–,–,–,"CFU % recovery (as compared to control flask F), 0 min [1]: 89% and 70% and 75%; CFU % recovery (as compared to control flask F), 10 min [1]: 81%; CFU % recovery (as compared to control flask F), 45 min [1]: 55%; CFU % recovery (as compared to control flask F), 1 h [1]: 54% and 78% and 80% and 58%; CFU % recovery (as compared to control flask F), 90 min [1]: 64%; CFU % recovery (as compared to control flask F), 2 h [1]: 27% and 45% and 46% and 34%"
"CCCCCCCCCCCCOS(=O)(=O)[O-].[Na+] [0.05% sodium dodecyl sulfate (pH 4.4), sodium dodecyl sulfate]",7.1,7.0,7.2,7.1,7.2,7.1,–,–,–,–,–,–,L. monocytogenes counts at 0 min (L. monocytogenes; 21° C.): 6.6 ± 0.3 log CFU/ml; L. monocytogenes counts at 2 min (L. monocytogenes; 21° C.): 6.4 ± 0.1 log CFU/ml; L. monocytogenes counts at 5 min (L. monocytogenes; 21° C.): 6.0 ± 0.1 log CFU/ml; L. monocytogenes counts at 10 min (L. monocytogenes; 21° C.): 5.0 ± 0.3 log CFU/ml; L. monocytogenes counts at 20 min (L. monocytogenes; 21° C.): 3.8 ± 0.2 log CFU/ml; L. monocytogenes counts at 30 min (L. monocytogenes; 21° C.): 3.3 ± 0.1 log CFU/ml; Salmonella reduction (S. enteritidis): did not reduce Salmonella cell numbers; S. typhimurium DT 104 counts at 0 min (S. typhimurium DT 104): 7.0 log CFU/ml; S. typhimurium DT 104 counts at 1 min (S. typhimurium DT 104): 7.0 log CFU/ml; S. typhimurium DT 104 counts at 2 min (S. typhimurium DT 104): 6.8 log CFU/ml; S. typhimurium DT 104 counts at 5 min (S. typhimurium DT 104): 6.9 log CFU/ml; S. typhimurium DT 104 counts at 10 min (S. typhimurium DT 104): 6.8 log CFU/ml; S. typhimurium DT 104 counts at 20 min (S. typhimurium DT 104): 6.9 log CFU/ml; S. typhimurium DT 104 counts at 30 min (S. typhimurium DT 104): 6.9 log CFU/ml; S. typhimurium DT 104 counts at 60 min (S. typhimurium DT 104): 6.9 log CFU/ml
"CC(=O)CCC(=O)O [1.5% levulinic acid (pH 2.8), levulinic acid]",6.7,6.7,6.8,6.7,6.4,6.5,6.9 ± 0.1,6.9 ± 0.2,6.9 ± 0.3,6.9 ± 0.1,6.9 ± 0.3,6.8 ± 0.3,–
"CC(=O)CCC(=O)O [2.5% levulinic acid (pH 2.6), levulinic acid]",6.9,6.8,6.9,6.4,5.8,4.8,–,–,–,–,–,–,–
"CC(=O)CCC(=O)O [0.5% levulinic acid (pH 2.6), levulinic acid]",7.1,6.8,6.9,6.9,6.6,6.7,6.7 ± 0.2,6.7 ± 0.1,6.8 ± 0.3,6.9 ± 0.2,6.7 ± 0.2,6.8 ± 0.2,S. typhimurium DT 104 counts at 0 min (S. typhimurium DT 104): 6.8 log CFU/ml; S. typhimurium DT 104 counts at 1 min (S. typhimurium DT 104): 6.7 log CFU/ml; S. typhimurium DT 104 counts at 2 min (S. typhimurium DT 104): 6.6 log CFU/ml; S. typhimurium DT 104 counts at 5 min (S. typhimurium DT 104): 6.5 log CFU/ml; S. typhimurium DT 104 counts at 10 min (S. typhimurium DT 104): 6.7 log CFU/ml; S. typhimurium DT 104 counts at 20 min (S. typhimurium DT 104): 6.6 log CFU/ml; S. typhimurium DT 104 counts at 30 min (S. typhimurium DT 104): 6.4 log CFU/ml; S. typhimurium DT 104 counts at 60 min (S. typhimurium DT 104): 5.9 log CFU/ml
"CC(=O)CCC(=O)O [0.1% levulinic acid (pH 2.5), levulinic acid]",7.1,7.1,6.9,7.0,6.9,6.9,–,–,–,–,–,–,–
"CC(=O)CCC(=O)O [1.0% levulinic acid (pH 2.9), levulinic acid]",6.9,6.7,6.8,6.9,6.9,6.7,6.8 ± 0.3,6.7 ± 0.2,6.6 ± 0.3,6.6 ± 0.3,6.6 ± 0.0,6.6 ± 0.3,–
CCCCCCCCCCCCOS(=O)(=O)[O-].[Na+] [E],–,–,–,–,–,–,–,–,–,–,–,–,"CFU % recovery (as compared to control flask F), 10 min [1]: 65%; CFU % recovery (as compared to control flask F), 45 min [1]: 94%; CFU % recovery (as compared to control flask F), 90 min [1]: 144%; CFU % recovery (as compared to control flask F), 2 h [1]: 87% and 74% and 103% and 53%; CFU % recovery (as compared to control flask F), 180 min [1]: 95%; CFU % recovery (as compared to control flask F), 3 h [1]: 98% and 68% and 113% and 71%; effectiveness versus water control F [1]: not more effective than the water control F; recovery levels over time [1]: did not decrease"
"CC(=O)CCC(=O)O [2.0% levulinic acid (pH 2.8), levulinic acid]",6.7,6.7,6.7,6.8,6.5,6.0,6.8 ± 0.3,6.8 ± 0.2,6.9 ± 0.2,6.7 ± 0.2,6.9 ± 0.2,6.8 ± 0.2,–
[Ca+2].[O-]Cl.[O-]Cl [50 ppm calcium hypochlorite],–,–,–,–,–,–,–,–,–,–,–,–,Salmonella counts after treatment ([2]; left breast): 7.0 log CFU/9 cm^2 and 8.7 log CFU/9 cm^2 and 7.9 log CFU/9 cm^2 and 8.1 log CFU/9 cm^2; Salmonella counts after treatment ([2]; left wing): 7.6 log CFU/9 cm^2 and 8.0 log CFU/9 cm^2 and 8.1 log CFU/9 cm^2 and 8.8 log CFU/9 cm^2 and 8.5 log CFU/9 cm^2; Salmonella counts after treatment ([2]; neck): 7.9 log CFU/9 cm^2 and 8.9 log CFU/9 cm^2 and 8.5 log CFU/9 cm^2 and 8.1 log CFU/9 cm^2; Salmonella counts after treatment ([2]; right breast): 7.9 log CFU/9 cm^2 and 8.3 log CFU/9 cm^2 and 8.0 log CFU/9 cm^2 and 8.5 log CFU/9 cm^2 and 7.8 log CFU/9 cm^2; Salmonella counts after treatment ([2]; right wing): 8.4 log CFU/9 cm^2 and 8.0 log CFU/9 cm^2 and 7.6 log CFU/9 cm^2
